These results are taken from PMC8329197, “Compounds targeting OSBPL7 increase ABCA1-dependent cholesterol efflux preserving kidney function in two models of kidney disease” (Nature Communications, 2021).

Where “and” joins values, the source holds several entries; their conditions need not be identical. Equal entries are not always repeated.

One series relates to ABCA1 protein. Kind of series: ABCA1 western blot in podocyte whole-cell lysates. Format: cell-based, human. The conditions noted are these: Cpd G 10 µM, Cpd A 5 µM; podocytes. Here is the method: Cell lines were purchased from ATCC and subcultured for no more than passage 15, except for human podocytes, which were originally from Dr Jochen Reiser. Conditionally immortalized human podocytes were cultured under permissive conditions at 33 °C, in RPMI medium (Corning) containing 10% FBS (GIBCO), 1% penicillin/streptomycin, 0.01 mg/ml recombinant human insulin, 0.0055 mg/ml human transferrin (substantially iron-free), and 0.005 μg/ml sodium selenite (ITS, Corning). To induce differentiation, podocytes were cultured at 37 °C for 14 days in RPMI medium containing 10% FBS (GIBCO) and 1% penicillin/streptomycin. Differentiated podocytes were starved in RPMI-0.2% FBS for 18 h and then treated with 1 μM, 5 μM, and 10 μM of compounds freshly prepared in DMSO for 18 h at 37 °C as indicated.
Lysates, or cell fractions were incubated in Laemmli buffer at 55 °C for 10 min under reducing conditions. A total of 30 μg of protein from cell lysates or one-third of the volume collected in cell fraction preparations was separated by SDS-PAGE in 4–20% gradient gels (Biorad) and proteins were then transferred to PVDF membranes. […] Signals were detected after incubation with Westernbright ECL HRP substrate (Advansta) and luminescence signals were captured with Azure C600 Gel Imaging workstation (Azure Biosystems Inc, USA) or X-ray films.

The test system of series [1] is THP1 macrophages transfected with siRNA. Kind of series: apoAI-mediated cholesterol efflux in siRNA-transfected THP1 macrophages. Also on record: unit not given here. The conditions noted are these: Cpd G 5 µM; for APOA1-MEDIATED CHOLESTEROL EFFLUX: single experiments. Format: cell-based, human. How it is done:
siRNA pools specific for human OSBPL7, human CB1R and non target siRNA negative control are summarized in Supplementary Table 6. THP1 monocytes were seeded at a density of 80,000 cells/well in 96-well plates and differentiated with PMA as described above. After 72 h, medium was replaced by 50 µl of fresh medium per well. Cells were then transfected using Viromer Blue reagent (Origene) following the manufacturer’s directions. Briefly, 10 µl of siRNA (5 µM) was mixed with 90 µl of Viromer Blue (diluted 1% v/v in supplied buffer). After 15 min incubation, siRNA-transfection reagent complexes were diluted 1:6.5 in fresh medium and added in a volume of 50 µl per well. After 24 h, cells were then loaded with cholesterol by incubation with acetylated LDL (25 µg/ml) in RPMI medium, 1% FBS, 100 nM PMA, 2 µCi ^3H-cholesterol for 24 h. A set of wells containing transfected cells was set aside to verify transfection efficiency by RT-PCR. The cholesterol-loaded macrophages were then incubated in the presence of Cpd G 5 μM, or vehicle (0.1% DMSO) in RPMI medium w/o Phenol Red, 0.2% BSA) for an additional 24 h. Cholesterol efflux was then measured as described above.

The subject of series [2] is Adriamycin (ADR)-induced nephropathy in Balb/c mice. Kind of series: ADR nephropathy: IL-1β and MCP-1 mRNA in kidney cortex. The format is in vivo, mouse. Here is the method:
RNA was isolated using RNEasy Plus Mini kit (Qiagen). Reverse transcription was performed using qScript cDNA Super Mix (Quantabio) according to the manufacturer’s instructions. Quantitative real-time PCR was performed using TaqMan Fast Universal PCR Master Mix and Taqman gene expression assays (Supplementary Table 7).

The next series relates to Col4a3 KO mice. Nature of the series: Alport syndrome model: mesangial expansion score in PAS-stained kidney sections. Format: in vivo, mouse. The conditions noted are these: age 8 weeks, Cpd G 100 mg/Kg/day. How it is done:
Formalin-fixed paraffin-embedded kidney cortex sections 4 μm thick were stained with Periodic acid-Schiff (PAS). The slides were analyzed by a renal pathologist in a double-blind design. Glomerular sclerosis, (global and segmental), podocyte hypertrophy and podocyte hyperplasia were expressed as the percentage of glomeruli found with these abnormalities. Tubular microcysts and interstitial inflammation were scored on a 0–4 scale where 0 = 0%, 0.5 = 1–10%, 1 = 11–25%, 2: 26–50 %, 3: 51–75%, and 4 = more than 75% damage.

The next series relates to 3A4. Kind of series: TDI (3A4) time dependent inhibition. The format is in vitro ADME.
The nature of a further series: Covalent Binding. The format is in vitro ADME.
Series [3] is described as follows: Microsomal metabolism, human. The format is in vitro ADME.
A further series in a line: Hepatocytes Clint, rat. Format: in vitro ADME.
Series [4] is described as follows: Rat single-dose pharmacokinetics. The conditions noted are these: in vivo.

For `O=C(N[C@@H]1CCCC[C@H]1O)c1ccc(OCC(F)(F)F)c(-c2ccc(Cl)c(Cl)c2)n1` [Cpd A], in the series with ABCA1 protein, the “ABCA1 protein levels in whole-cell lysates” value is on record as “significantly increased ABCA1 protein levels”.

For the molecule `O=C(N[C@@H]1CCCC[C@H]1O)c1cnc(OCC(F)(F)F)c(-c2ccc(Cl)c(Cl)c2)c1` [Cpd G], in series [1] (siCB1R cells), the “APOA1-MEDIATED CHOLESTEROL EFFLUX, mean” value turned out to be 4.467; the “APOA1-MEDIATED CHOLESTEROL EFFLUX” value is 5.6 and 4.3 and 3.5. Also, in series [1] (siCTRL cells), the “APOA1-MEDIATED CHOLESTEROL EFFLUX, mean” value turned out to be 4.267; the “APOA1-MEDIATED CHOLESTEROL EFFLUX” value is 5 and 4.8 and 3. Further, in series [2] (ADR + Cpd G), the “IL1β in kidney cortex” value was “reduced” and the “MCP-1 in kidney cortex” value was “reduced”. Further, the “Relative MCP1/PGK1 mRNA Expression (RQ)” value in series [2] (kidney cortexes after ADR injection, No ADR group as reference, individual mice) is 0.39 and 4.08 (2×) and 0.99 and 0.91 and 1.65 (2×) and 0.3536 and 0.2392 and 0.3907 and 0.9918 and 0.906 and 0.35 and 0.24. Moreover, the “Relative MCP1/PGK1 mRNA Expression (RQ), Median” value in series [2] (kidney cortexes after ADR injection, group median) is reported as 0.91. In series [2] (kidney cortexes, ADR, 100 mg/Kg/Day for 28 days, No ADR group as reference, individual mice, 100 mg/kg/day), the “Relative IL1-B/PGK1 mRNA Expression (RQ)” value is 0.44 and 1.49 and 0.38 and 0.75 and 0.61 and 2.626 and 0.452 and 0.4443 and 1.494 and 0.3797 and 0.7453 and 0.6111 and 2.63 and 0.45. In addition, in series [2] (kidney cortexes, ADR, 100 mg/Kg/Day for 28 days, group median), the “Relative IL1-B/PGK1 mRNA Expression (RQ), Median” value came to 0.61. In the series on Col4a3 KO mice, the “MESANGIAL EXPANSION (scale 1-5), Median” value was found to be 2. Moreover, the “MESANGIAL EXPANSION (scale 1-5)” value in the series on Col4a3 KO mice (single animals) is 2 and 2.5 and 1.5. For the same molecule, the “TDI (3A4) time dependent inhib” value with 3A4 is listed as “Negative”. For the same molecule, the “Covalent Binding” value in the series “Covalent Binding” was “No flag”. Besides, the “Microsomes (MAB%) (r/h)” value in series [3] worked out at 82%. Moreover, the “Hepatocytes Clint (Fh%) (r/h)” value in the series “Hepatocytes Clint, rat” came to 70%. Moreover, in series [4], the bioavailability worked out at 105%; the clearance (commonly a measure of how efficiently the substance is removed, as volume per time) stood at 2.5 mL/min/kg; the half-life (as a rule, the time needed for the level to fall by half in the phase considered) was 8.9 h. Also, the Vd in series [4] (read-out: Vss) was 1.5 L/kg.
